Experimental data published in US20030215899A1, “Reversible oxidation of protein tyrosine phosphatases” (CEPTYR, Inc., priority 2002, published 2003).
Entries after “also recorded” stand apart in the source; their conditions may differ.

Assays:
[1] = tested on: PDGFR/SHP-2 complex; assay: recruitment of SHP-2 into a complex with the PDGFR; format: cell-based; details: ligand stimulation in Rat-1 cells, preliminary studies
Experimental: (§1) For immunoprecipitation, cells were rinsed with ice-cold PBS, then lysed in ice-cold 20 mM Hepes (pH 7.5), 1% NP-40, 150 mM NaCl, 10% glycerol, 200 μM […] and protease inhibitors (25 μg/ml of aprotinin and leupeptin). […] The anti-pTyr antibody G104 was described previously (Garton et al., 1997 Oncogene 15, 877-885). Anti-PDGFRββ antibody (Ab-X) was a gift from Dr. Daniel DiMaio at Yale University (Irusta and DiMaio, 1998 EMBO J. 17, 6912-6923). Anti-human G-CSF receptor (G-CSFR) antibody was provided by Dr. Toshio Hirano at Osaka University, Japan (Fukada et al., 1996 Immunity 5, 449-460). Lysate (400 μg) was incubated with 5 μg of antibody conjugated to protein A/G-Sepharose (Amersham Pharmacia, Arlington Heights, Ill.) for 2 hours at 4° C. For immunoblotting, aliquots of total lysates (30 μg per sample) or immunoprecipitates were subjected to SDS-PAGE and transferred to nitrocellulose filters, which were incubated with appropriate primary and secondary antibodies and the specific signals were visualized by the ECL detection system (Amersham Pharmacia).
Serum-starved Rat-1 cells were exposed to PDGF (50 ng/ml) for the indicated times (FIG. 5A). The PDGFR and associated proteins were immunoprecipitated with antibody Ab-X, and pTyr proteins visualized by immunoblotting with anti-pTyr Ab G104 (FIG. 5A, upper panel). […]

[2] = tested on: intracellular ROS in Rat-1 cells; assay: ROS-induced DCF fluorescence (microscopy, flow cytometry); format: cell-based; details: for DCF fluorescence by fluorescence microscopy: 20 μM H2DCFDA preload, 200 μM, 5 mins; for shift of DCF fluorescence by flow cytometry, H2O2 versus t-BHP: 200 μM each
Experimental: The effects of H2O2 and t-BHP on inactivation of PTPs and activation of MAPK signaling pathways were next compared in a cellular context. Intracellular ROS were measured using 2′,7′-dichlorofluorescein diacetate (H2DCFDA) and 5-(and-6)-chloromethyl-2′,7′-dichlorodihydrofluorescein diacetate (CM-H2DCFDA) (all fluorescent ROS indicators from Molecular Probes, Eugene, Oreg.) either by fluorescence microscopy, using a Zeiss Axiovert 405M inverted microscope equipped with a fluorescence attachment and digital camera, or by cell sorting, using a FACSCalibur System ([…].), according to the manufacturer's recommendations. Rat-1 cells were pre-loaded with 20 μM H2DCFDA in the dark for 20 mins, then exposed to H2O2 and t-BHP (both 200 μM) for 5 mins. Images of ROS-induced DCF fluorescence are shown at magnification 400× (FIG. 3B upper panel). Cells (1×10^5) that underwent the same treatment as above were harvested and resuspended in Hanks' solution, then immediately subjected to flow cytometric analysis to measure ROS-induced DCF fluorescence. The basal peak indicates background fluorescence, whereas the rightward shifted peak indicates ROS-induced DCF fluorescence (FIG. 3B, lower panels). […] Cells were exposed to H2O2 and t-BHP (each at 200 μM) for the indicated times, lysed in the presence of 10 mM IAA and oxidized PTPs were visualized in the in-gel PTP activity assay.
Rat-1 cells were incubated with 20 μM CM-H2DCFDA in the dark for 20 mins, then exposed to peptide growth factors (50 ng/ml) for an additional 10 mins. Images of ROS-induced DCF fluorescence are shown at 50× magnification. (FIG. 6A) The data are representative of 4 independent experiments. In FIG. 6B, Rat-1 cells were exposed to peptide growth factors for the indicated times, lysed in the presence of 10 mM IAA, and oxidized PTPs were visualized by the in-gel PTP assay. […] Aliquots of cell lysate from each treatment group were immunoblotted with anti-phospho-MAPK Ab and re-probed with anti-MAPK Ab.

[3] = target: T1, 70 kDa PTP (SHP-2) (Rattus norvegicus, UniProt P41499); assay: modified in-gel PTP assay, growth factor stimulated Rat-1 cells; format: cell-based
T1 construct: endogenous in cells; host or cells: Rat-1 fibroblasts
T1 sequence (P41499 1-593): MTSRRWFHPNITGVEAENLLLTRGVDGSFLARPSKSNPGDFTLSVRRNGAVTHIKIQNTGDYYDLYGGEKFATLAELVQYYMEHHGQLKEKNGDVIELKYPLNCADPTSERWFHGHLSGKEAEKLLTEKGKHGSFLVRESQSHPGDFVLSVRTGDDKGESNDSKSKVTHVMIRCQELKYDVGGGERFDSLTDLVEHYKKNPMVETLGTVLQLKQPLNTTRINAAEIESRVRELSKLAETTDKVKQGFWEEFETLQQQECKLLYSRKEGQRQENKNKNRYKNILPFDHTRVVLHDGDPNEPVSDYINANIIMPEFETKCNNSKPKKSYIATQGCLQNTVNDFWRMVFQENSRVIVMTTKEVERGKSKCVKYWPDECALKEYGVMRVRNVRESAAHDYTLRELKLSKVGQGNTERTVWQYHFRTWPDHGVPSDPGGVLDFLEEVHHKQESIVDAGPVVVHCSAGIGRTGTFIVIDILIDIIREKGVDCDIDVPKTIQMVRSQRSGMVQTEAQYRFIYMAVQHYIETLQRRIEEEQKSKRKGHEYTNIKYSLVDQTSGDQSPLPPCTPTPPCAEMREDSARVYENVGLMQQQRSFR
Description: (§2) To determine whether ROS stimulated intracellular tyrosine phosphorylation through the oxidation and inhibition of cellular PTPs, a modified in-gel PTP activity assay was devised, as follows: As substrate, poly (4:1) Glu-Tyr (Sigma) was labeled with [γ-^32P]-ATP using the GST-FER fusion PTK, as described previously (Shen et al., 1998 J. Biol. Chem. 273:6474-81). The labeled substrates were used within three weeks to limit the variation of its specific activity from experiment to experiment. The lysis buffer (25 mM CH3COONa, 1% NP-40, 150 mM NaCl, 10% glycerol, pH 5.5) was degassed at 4° C. for overnight, before catalase and superoxide dismutase (both 100 μg/ml), protease inhibitors and 10 mM iodoacetic acid (IAA) were added. Following stimulation, cells were lysed under anaerobic conditions in an argon chamber. Lysates (25 μg) were processed as described herein and an “in-gel” phosphatase assay (Burridge and Nelson, 1995) was conducted using SDS-PAGE gels containing a radioactively-labeled substrate (1.5×10^6 cpm/20 ml gel solution, approximately 2 μM p-Tyr).
(§3) Cells were triggered with the appropriate stimulus and harvested under anaerobic conditions in lysis buffer containing IAA. Those PTPs that had not encountered ROS in the cell became irreversibly inactivated by alkylation of their active site Cys with IAA. However, in contrast, any PTPs in which the active site Cys had been oxidized in response to the stimulus were resistant to alkylation. For the “in-gel” phosphatase assay, a 10% SDS-PAGE gel was cast containing a radioactively-labeled substrate. An aliquot of cell lysate was subjected to SDS-PAGE and proteins in the gel were sequentially denatured, then renatured in the presence of reducing reagents. […] The reaction was then terminated by fixing, staining and destaining the gel. Finally the gel was dried and exposed to film. The presence of a PTP was visualized by substrate dephosphorylation, as the appearance of a clear, white area on the black background of labeled substrate.
As described above, treatment of Rat-1 cells with H2O2 led to inactivation of multiple PTPs (FIGS. 2-3). […] Lysates of PDGF-stimulated Rat-1 cells were then analyzed using the modified in-gel PTP activity assay described above. […] Serum-starved Rat-1 cells were exposed to 50 ng/ml PDGF-BB for the times indicated (FIG. 4A). Lysates were prepared in the presence of 10 mM IAA and subjected to the in-gel PTP assay. […] The result shown is representative of four independent experiments. Oxidation of this 70 kDa PTP was reversible, reaching a maximum at 5 minutes, followed by marked reduction, almost to basal levels, within 20 minutes of PDGF treatment (FIG. 4A).
Rat-1 cells, either untreated (−) or stimulated with 50 ng/ml PDGF (+), were harvested in lysis buffer containing 10 mM IAA.

[4] = tested on: MAPK; assay: anti-phospho-MAPK / anti-MAPK immunoblot; format: cell-based, Rat; details: for activation of MAPKs (mitogenic signaling): 200 μM
Experimental: as §1

[5] = tested on: tyrosine phosphorylation of cellular proteins in Rat-1 cells; assay: immunoprecipitation (PT-66) and anti-pTyr (G104) immunoblot of tyrosine phosphorylated proteins; format: cell-based
Experimental: as §1

[6] = tested on: PTPs in Rat-1 cells; assay: modified in-gel PTP activity assay of Rat-1 cell lysates; format: cell-based; details: for inactivation (oxidation) of PTPs in cells: 200 μM
Description: as §2, §3

[7] = target: SHP-2 (E76A mutant) (Homo sapiens, UniProt Q06124, E76A); format: biochemical; details: for protection of SHP-2 from alkylation by IAA: 37° C. 5 mins, then 4 mM IAA
[8] = tested on: PDGFR; assay: PDGFR immunoprecipitation (Ab-X) and anti-pTyr immunoblot; format: cell-based, Rat; details: 30 mM NAC 40 minutes before PDGF 50 ng/ml
Experimental: as §1
A possible role of oxidation/inactivation of the 70 k PTP in regulating PDGFR-mediated signaling was next investigated by testing the effects of the antioxidant NAC. Cells were incubated for 40 minutes in the presence or absence of 30 mM NAC prior to PDGF stimulation. Excess NAC was removed prior to addition of PDGF (50 ng/ml). […]

[9] = PDGF-treated Rat-1 cells, preliminary experiments
[10] = 30 mM NAC 40 minutes before PDGF 50 ng/ml

Compound: PDGF: peptide growth factor
- fraction of total SHP-2 recruited into a complex with the PDGFR [1]: ~10%
- production of intracellular ROS ([2]; 20 μM CM-H2DCFDA, growth factor 50 ng/ml, 10 mins): triggered production of intracellular ROS
- time of maximum oxidation of 70 kDa PTP ([3]; 50 ng/ml PDGF-BB): 5 min
- time to reduction of 70 kDa PTP almost to basal levels ([3]; 50 ng/ml PDGF-BB): ≤ 20 min
- oxidation of ~70 kDa PTP ([3]; 50 ng/ml PDGF-BB, serum-starved Rat-1 cells): rapid and transient oxidation; also recorded: transiently oxidized
- oxidation and inhibition of SHP-2 ([3]; peptide growth factors, lysis with 10 mM IAA): oxidation and inhibition of SHP-2 was observed; also recorded: induced
- phosphorylation of MAPKs [4, 9]: enhanced phosphorylation of MAPKs
- activation of MAPK ([4]; peptide growth factors, Rat-1 cells): activated MAPK to a similar extent
- tyrosine phosphorylation of cellular proteins [5, 9]: rapid increase in the tyrosine phosphorylation of cellular proteins

Compound: OO [H2O2, hydrogen peroxide]
- time to essentially complete recovery (reduction) of PTPs after removal of H2O2 ([6]; 200 μM H2O2 for 2 minutes, no BSO): 10 to 20 min
- inactivation (oxidation) of PTPs in cells ([6]; lysis with 10 mM IAA): reproducible inactivation of PTPs was detected
- H2O2 concentration sufficient to oxidize all PTPs detectable in the assay ([6]; 1 min exposure, serum-deprived Rat-1 cells): 200 µM
- time to oxidation of active site Cys of various PTPs ([6]; H2O2 added to culture media, lysis with 10 mM IAA): ≤ 1 min
- irreversible oxidation of SHP-2 ([7]; 2 mM H2O2): not irreversibly oxidized
- protection of SHP-2 from alkylation by IAA [7]: protected SHP-2 from alkylation
- DCF fluorescence by fluorescence microscopy [2]: led to rapid oxidation and the appearance of the fluorescent derivative, DCF
- shift of DCF fluorescence by flow cytometry, H2O2 versus t-BHP [2]: no quantitative difference was observed
- activation of MAPKs (mitogenic signaling) [4]: enhanced tyrosine phosphorylation and mitogenic signaling
- phosphorylation of ERK MAP kinases ([4]; H2O2-treated Rat-1 cells): triggered the phosphorylation of ERK MAP kinases
- tyrosine phosphorylation of cellular proteins ([5]; 200 μM): enhanced tyrosine phosphorylation
- tyrosine phosphorylation of proteins of 120 kDa and 70 kDa ([5]; various concentrations of H2O2): induced in a dose-dependent fashion

Compound: CC(C)(C)OO [t-BHP, t-butyl hydroperoxide]
- inactivation (oxidation) of PTPs in cells ([6]; lysis with 10 mM IAA): not in response to t-BHP
- protection of SHP-2 from alkylation by IAA [7]: did not protect the invariant Cys residue of SHP-2 from alkylation
- oxidation and inactivation of SHP-2 in vitro ([7]; purified SHP-2 (E76A)): unable to oxidize and inactivate SHP-2
- DCF fluorescence by fluorescence microscopy [2]: led to rapid oxidation and the appearance of the fluorescent derivative, DCF
- shift of DCF fluorescence by flow cytometry, H2O2 versus t-BHP [2]: no quantitative difference was observed
- activation of MAPKs (mitogenic signaling) [4]: unable to activate MAPKs
- tyrosine phosphorylation of cellular proteins ([5]; 200 μM): less pronounced effects on tyrosine phosphorylation

Compound: CC(=O)N[C@@H](CS)C(=O)O [NAC, N-acetyl cysteine]
- effect on H2O2-induced PTP oxidation and inactivation ([6]; 30 mM NAC preincubation 40 minutes, then 200 μM H2O2): blocked PTP oxidation and inactivation
- effect on ligand-induced tyrosine phosphorylation of the PDGFR [8]: greatly diminished
- effect on PDGF-induced oxidation of the 70 k PTP [3, 10]: markedly attenuated; also recorded: impaired
- effect on PDGF-induced activation of MAPKs [4, 10]: completely eliminated

Compound: CCCCS(=N)(=O)CCC(N)C(=O)O [BSO, L-buthionine-SR-sulfoximine]
- effect on recovery of PTP activity following removal of H2O2 ([6]; 2.5 mM BSO 16 h, 200 μM H2O2 for 2 minutes then removed): markedly attenuated the recovery of PTP activity
- persistence of PTP oxidation after removal of H2O2 ([6]; BSO-pretreated Rat-1 cells): ≥ 30 min
